Measured values taken from patent publication US20170190671A1, “BIS(ARYL)CATECHOL DERIVATIVES AS HERBICIDES” (E I DU PONT DE NEMOURS AND COMPANY, priority 2014, published 2017).

Legend:
Format in all cases: in vivo
[1] = tested on: blackgrass (Alopecurus myosuroides); assay: Test C preemergence; details: Alopecurus myosuroides, pre-emergence, 336 h, preemergence, scale 0 to 100, read-out: Plant response rating, Blackgrass
In short: (§1)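 Greenhouse test; preemergence to seeds in loam/sand soil, or postemergence spray to 2-18 cm, 1- to 4-leaf plants in peat/vermiculite medium; compound in non-phytotoxic solvent plus surfactant. Visual rating vs controls at 13-15 d, 0 = no effect, 100 = complete control.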

[2] = tested on: oilseed rape (Brassica napus); assay: Test C preemergence; details: Brassica napus, pre-emergence, preemergence, scale 0 to 100, read-out: Plant response rating, Oilseed Rape
In short: as §1

[3] = tested on: yellow nutsedge (Cyperus esculentus); assay: Test C preemergence; details: Cyperus, pre-emergence, 336 h, preemergence, scale 0 to 100, read-out: Plant response rating, Nutsedge, Yellow
In short: as §1

[4] = tested on: ragweed (common ragweed, Ambrosia elatior); assay: Test C postemergence; details: Ambrosia artemisiifolia, post-emergence, 336 h, Postemergence, scale 0 to 100, read-out: Plant response rating, Ragweed
In short: as §1

[5] = tested on: blackgrass (Alopecurus myosuroides); assay: Test C postemergence; details: Alopecurus myosuroides, post-emergence, 336 h, Postemergence, scale 0 to 100, read-out: Plant response rating, Blackgrass
In short: as §1

[6] = tested on: galium (catchweed bedstraw, Galium aparine); assay: Test C postemergence; details: Galium, post-emergence, 336 h, Postemergence, scale 0 to 100, read-out: Plant response rating, Galium
In short: as §1

[7] = tested on: wild oat (Avena fatua); assay: Test C postemergence; details: Avena fatua, post-emergence, Postemergence, scale 0 to 100, read-out: Plant response rating, Oat, Wild
In short: as §1

[8] = tested on: Italian ryegrass (Lolium multiflorum); assay: Test C postemergence; details: Lolium multiflorum, post-emergence, 336 h, Postemergence, scale 0 to 100, read-out: Plant response rating, Ryegrass, Italian
In short: as §1

[9] = tested on: oilseed rape (Brassica napus); assay: Test C postemergence; details: Brassica napus, post-emergence, Postemergence, scale 0 to 100, read-out: Plant response rating, Oilseed Rape
In short: as §1

[10] = tested on: morningglory (Ipomoea coccinea); assay: Test C postemergence; details: Ipomoea, post-emergence, 336 h, Postemergence, scale 0 to 100, read-out: Plant response rating, Morningglory
In short: as §1

[11] = tested on: johnsongrass (Sorghum halepense); assay: Test C postemergence; details: Sorghum halepense, post-emergence, 336 h, Postemergence, scale 0 to 100, read-out: Plant response rating, Johnsongrass
In short: as §1

[12] = tested on: giant foxtail (Setaria faberii); assay: Test C postemergence; details: Setaria faberi, post-emergence, 336 h, Postemergence, scale 0 to 100, read-out: Plant response rating, Foxtail, Giant
In short: as §1

[13] = tested on: lambsquarters (Chenopodium album); assay: Test C postemergence; details: Chenopodium album, post-emergence, 336 h, Postemergence, scale 0 to 100, read-out: Plant response rating, Lambsquarters
In short: as §1

[14] = tested on: velvetleaf (Abutilon theophrasti); assay: Test C postemergence; details: Abutilon theophrasti, post-emergence, Postemergence, scale 0 to 100, read-out: Plant response rating, Velvetleaf
In short: as §1

[15] = tested on: yellow nutsedge (Cyperus esculentus); assay: Test C postemergence; details: Cyperus, post-emergence, 336 h, Postemergence, scale 0 to 100, read-out: Plant response rating, Nutsedge, Yellow
In short: as §1

[16] = tested on: winter wheat (Triticum aestivum); assay: Test C postemergence; details: Triticum aestivum, post-emergence, 336 h, Postemergence, scale 0 to 100, read-out: Plant response rating, Wheat
In short: as §1

[17] = tested on: chickweed (common chickweed, Stellaria media); assay: Test C postemergence; details: Stellaria media, post-emergence, Postemergence, scale 0 to 100, read-out: Plant response rating, Chickweed
In short: as §1

[18] = tested on: large (Lg) crabgrass (Digitaria sanguinalis); assay: Test C postemergence; details: Digitaria sanguinalis, post-emergence, 336 h, Postemergence, scale 0 to 100, read-out: Plant response rating, Crabgrass, Large
In short: as §1

[19] = tested on: corn (Zea mays); assay: Test C postemergence; details: Zea mays, post-emergence, 336 h, Postemergence, scale 0 to 100
In short: as §1

[20] = tested on: soybean (Glycine max); assay: Test C postemergence; details: Glycine max, post-emergence, Postemergence, scale 0 to 100, read-out: Plant response rating, Soybean
In short: as §1

[21] = tested on: barnyardgrass (Echinochloa crus-galli); assay: Test C postemergence; details: Echinochloa crus-galli, post-emergence, Postemergence, scale 0 to 100, read-out: Plant response rating, Barnyardgrass
In short: as §1

[22] = tested on: kochia (Kochia scoparia); assay: Test C postemergence; details: Bassia scoparia, post-emergence, Postemergence, scale 0 to 100, read-out: Plant response rating, Kochia
In short: as §1

## Clc1cnc(Oc2cccc(Cl)c2Oc2ncc(Br)cn2)nc1 [Compound 17, 5-bromo-2-[2-chloro-6-[(5-chloro-2-pyrimidinyl)oxy]phenoxy]pyrimidine]
[1]; 31 g ai/ha
  pest or weed control at 31 g/ha: 60%
[1]; 62 g ai/ha
  pest or weed control at 62 g/ha: 90%
[1]; 125 g ai/ha
  pest or weed control at 125 g/ha: 95%
[2]; 31 g ai/ha
  plant injury at 31 g/ha: 85%
[2]; 62 g ai/ha
  plant injury at 62 g/ha: 90%
[2]; 125 g ai/ha
  plant injury at 125 g/ha: 100%
[2]; 250 g ai/ha
  plant injury at 250 g/ha: 98%
[3]; 31 g ai/ha
  pest or weed control at 31 g/ha: 0%
[3]; 62 g ai/ha
  pest or weed control at 62 g/ha: 10%
[3]; 125 g ai/ha
  pest or weed control at 125 g/ha: 55%
[4]; 31 g ai/ha
  pest or weed control at 31 g/ha: 50%
[4]; 62 g ai/ha
  pest or weed control at 62 g/ha: 45%
[4]; 125 g ai/ha
  pest or weed control at 125 g/ha: 60%
[4]; 250 g ai/ha
  pest or weed control at 250 g/ha: 55%
[5]; 31 g ai/ha
  pest or weed control at 31 g/ha: 5%
[5]; 62 g ai/ha
  pest or weed control at 62 g/ha: 5%
[5]; 125 g ai/ha
  pest or weed control at 125 g/ha: 15%
[5]; 250 g ai/ha
  pest or weed control at 250 g/ha: 15%
[6]; 31 g ai/ha
  pest or weed control at 31 g/ha: 70%
[6]; 62 g ai/ha
  pest or weed control at 62 g/ha: 80%
[6]; 125 g ai/ha
  pest or weed control at 125 g/ha: 90%
[6]; 250 g ai/ha
  pest or weed control at 250 g/ha: 95%
[7]; 31 g ai/ha
  pest or weed control at 31 g/ha: 0%
[7]; 62 g ai/ha
  pest or weed control at 62 g/ha: 0%
[7]; 125 g ai/ha
  pest or weed control at 125 g/ha: 5%
[7]; 250 g ai/ha
  pest or weed control at 250 g/ha: 15%
[8]; 31 g ai/ha
  pest or weed control at 31 g/ha: 0%
[8]; 62 g ai/ha
  pest or weed control at 62 g/ha: 0%
[8]; 125 g ai/ha
  pest or weed control at 125 g/ha: 5%
[8]; 250 g ai/ha
  pest or weed control at 250 g/ha: 15%
[9]; 31 g ai/ha
  plant injury at 31 g/ha: 50%
[9]; 62 g ai/ha
  plant injury at 62 g/ha: 50%
[9]; 125 g ai/ha
  plant injury at 125 g/ha: 80%
[9]; 250 g ai/ha
  plant injury at 250 g/ha: 40%
[10]; 31 g ai/ha
  pest or weed control at 31 g/ha: 90%
[10]; 62 g ai/ha
  pest or weed control at 62 g/ha: 90%
[10]; 125 g ai/ha
  pest or weed control at 125 g/ha: 85%
[10]; 250 g ai/ha
  pest or weed control at 250 g/ha: 70%
[11]; 31 g ai/ha
  pest or weed control at 31 g/ha: 5%
[11]; 62 g ai/ha
  pest or weed control at 62 g/ha: 5%
[11]; 125 g ai/ha
  pest or weed control at 125 g/ha: 5%
[11]; 250 g ai/ha
  pest or weed control at 250 g/ha: 10%
[12]; 31 g ai/ha
  pest or weed control at 31 g/ha: 5%
[12]; 62 g ai/ha
  pest or weed control at 62 g/ha: 15%
[12]; 125 g ai/ha
  pest or weed control at 125 g/ha: 10%
[12]; 250 g ai/ha
  pest or weed control at 250 g/ha: 40%
[13]; 31 g ai/ha
  pest or weed control at 31 g/ha: 80%
[13]; 62 g ai/ha
  pest or weed control at 62 g/ha: 70%
[13]; 125 g ai/ha
  pest or weed control at 125 g/ha: 90%
[13]; 250 g ai/ha
  pest or weed control at 250 g/ha: 95%
[14]; 31 g ai/ha
  pest or weed control at 31 g/ha: 30%
[14]; 62 g ai/ha
  pest or weed control at 62 g/ha: 35%
[14]; 125 g ai/ha
  pest or weed control at 125 g/ha: 40%
[14]; 250 g ai/ha
  pest or weed control at 250 g/ha: 70%
[15]; 31 g ai/ha
  pest or weed control at 31 g/ha: 5%
[15]; 62 g ai/ha
  pest or weed control at 62 g/ha: 5%
[15]; 125 g ai/ha
  pest or weed control at 125 g/ha: 5%
[15]; 250 g ai/ha
  pest or weed control at 250 g/ha: 20%
[16]; 31 g ai/ha
  plant injury at 31 g/ha: 0%
[16]; 62 g ai/ha
  plant injury at 62 g/ha: 0%
[16]; 125 g ai/ha
  plant injury at 125 g/ha: 0%
[16]; 250 g ai/ha
  plant injury at 250 g/ha: 0%
[17]; 31 g ai/ha
  pest or weed control at 31 g/ha: 40%
[17]; 62 g ai/ha
  pest or weed control at 62 g/ha: 70%
[17]; 125 g ai/ha
  pest or weed control at 125 g/ha: 60%
[17]; 250 g ai/ha
  pest or weed control at 250 g/ha: 85%
[18]; 31 g ai/ha
  pest or weed control at 31 g/ha: 5%
[18]; 62 g ai/ha
  pest or weed control at 62 g/ha: 5%
[18]; 125 g ai/ha
  pest or weed control at 125 g/ha: 10%
[18]; 250 g ai/ha
  pest or weed control at 250 g/ha: 10%
[19]; 31 g ai/ha
  Corn plant response rating (crop injury, 0 = no effect, 100 = complete kill) at 31 g/ha: 5%
[19]; 62 g ai/ha
  Corn plant response rating (crop injury, 0 = no effect, 100 = complete kill) at 62 g/ha: 20%
[19]; 125 g ai/ha
  Corn plant response rating (crop injury, 0 = no effect, 100 = complete kill) at 125 g/ha: 20%
[19]; 250 g ai/ha
  Corn plant response rating (crop injury, 0 = no effect, 100 = complete kill) at 250 g/ha: 15%
[20]; 31 g ai/ha
  plant injury at 31 g/ha: 55%
[20]; 62 g ai/ha
  plant injury at 62 g/ha: 80%
[20]; 125 g ai/ha
  plant injury at 125 g/ha: 90%
[20]; 250 g ai/ha
  plant injury at 250 g/ha: 90%
[21]; 31 g ai/ha
  pest or weed control at 31 g/ha: 5%
[21]; 62 g ai/ha
  pest or weed control at 62 g/ha: 5%
[21]; 125 g ai/ha
  pest or weed control at 125 g/ha: 10%
[21]; 250 g ai/ha
  pest or weed control at 250 g/ha: 10%
[22]; 31 g ai/ha
  pest or weed control at 31 g/ha: 90%
[22]; 62 g ai/ha
  pest or weed control at 62 g/ha: 90%
[22]; 125 g ai/ha
  pest or weed control at 125 g/ha: 95%
[22]; 250 g ai/ha
  pest or weed control at 250 g/ha: 95%
